# Measured values as given in patent publication US10858352B2, “Pharmaceutical compounds” (Heptares Therapeutics Limited, priority 2018, dated 2020).
# Like-named read-outs stand apart in the source and are kept apart here.
# Assays:
# Assay type in all cases: cell-based
# [1] = biological target: T1, human muscarinic M1 receptor (Homo sapiens, UniProt P11229); assay: Alphascreen Surefire phospho-ERK1/2 functional assay, M1; settings: for EC50 / pEC50 M1: agonist 5 min, 37° C.; for Emax: CHO
# T1 sequence (P11229 1-460): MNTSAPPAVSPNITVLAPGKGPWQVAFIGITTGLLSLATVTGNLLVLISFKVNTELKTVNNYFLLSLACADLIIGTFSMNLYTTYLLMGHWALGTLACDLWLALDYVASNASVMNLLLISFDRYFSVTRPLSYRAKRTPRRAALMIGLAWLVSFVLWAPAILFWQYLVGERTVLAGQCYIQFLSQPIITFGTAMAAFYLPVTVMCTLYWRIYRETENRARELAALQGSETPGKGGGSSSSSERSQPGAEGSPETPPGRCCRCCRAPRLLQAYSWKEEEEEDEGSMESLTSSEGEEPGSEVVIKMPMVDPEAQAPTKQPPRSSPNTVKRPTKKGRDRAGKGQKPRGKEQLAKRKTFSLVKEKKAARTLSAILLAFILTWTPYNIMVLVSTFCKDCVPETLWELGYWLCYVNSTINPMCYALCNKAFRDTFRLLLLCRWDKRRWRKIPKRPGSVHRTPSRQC
# Experimental: (§1) ERK1/2 phosphorylation is a downstream consequence of both Gq/11 and Gi/o protein coupled receptor activation, making it highly suitable for the assessment of M1, M3 (Gq/11 coupled) and M2, M4 receptors (Gi/o coupled), rather than using different assay formats for different receptor subtypes. CHO cells stably expressing the human muscarinic M1, M2, M3 or M4 receptor were plated (25K/well) onto 96-well tissue culture plates in MEM-alpha+10% dialysed FBS. Once adhered, cells were serum-starved overnight. Agonist stimulation was performed by the addition of 5 μL agonist to the cells for 5 min (37° C.). Media was removed and 50 μL of lysis buffer added. After 15 min, a 4 μL sample was transferred to 384-well plate and 7 μL of detection mixture added. […]
# [2] = biological target: T2, human muscarinic M2 receptor (Homo sapiens, UniProt P08172); assay: Alphascreen Surefire phospho-ERK1/2 functional assay, M2; settings: for Emax: CHO
# T2 sequence (P08172 1-466): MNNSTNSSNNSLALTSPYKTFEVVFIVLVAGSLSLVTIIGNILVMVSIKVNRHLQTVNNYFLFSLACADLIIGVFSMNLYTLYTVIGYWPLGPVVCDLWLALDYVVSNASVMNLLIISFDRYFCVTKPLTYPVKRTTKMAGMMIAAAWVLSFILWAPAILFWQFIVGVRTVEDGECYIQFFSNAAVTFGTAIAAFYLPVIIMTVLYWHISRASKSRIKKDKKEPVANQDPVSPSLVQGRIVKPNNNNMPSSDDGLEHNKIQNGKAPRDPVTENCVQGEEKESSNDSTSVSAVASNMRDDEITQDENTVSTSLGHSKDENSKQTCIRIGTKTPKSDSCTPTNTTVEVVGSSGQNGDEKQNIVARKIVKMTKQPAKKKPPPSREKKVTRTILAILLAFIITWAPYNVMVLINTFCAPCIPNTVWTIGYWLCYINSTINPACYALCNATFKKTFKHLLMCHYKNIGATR
# Experimental: as §1
# [3] = biological target: T3, human muscarinic M4 receptor (Homo sapiens, UniProt P08173); assay: Alphascreen Surefire phospho-ERK1/2 functional assay, M4; settings: for EC50 / pEC50 M4: agonist 5 min, 37° C.; for Emax: CHO, read-out: % Emax cf. ACh (M4), CHO cells stably expressing human M4; for Emax / % Emax cf. ACh (M4): Emax relative to ACh
# T3 construct: expressed in transfected cells
# T3 sequence (P08173 1-479): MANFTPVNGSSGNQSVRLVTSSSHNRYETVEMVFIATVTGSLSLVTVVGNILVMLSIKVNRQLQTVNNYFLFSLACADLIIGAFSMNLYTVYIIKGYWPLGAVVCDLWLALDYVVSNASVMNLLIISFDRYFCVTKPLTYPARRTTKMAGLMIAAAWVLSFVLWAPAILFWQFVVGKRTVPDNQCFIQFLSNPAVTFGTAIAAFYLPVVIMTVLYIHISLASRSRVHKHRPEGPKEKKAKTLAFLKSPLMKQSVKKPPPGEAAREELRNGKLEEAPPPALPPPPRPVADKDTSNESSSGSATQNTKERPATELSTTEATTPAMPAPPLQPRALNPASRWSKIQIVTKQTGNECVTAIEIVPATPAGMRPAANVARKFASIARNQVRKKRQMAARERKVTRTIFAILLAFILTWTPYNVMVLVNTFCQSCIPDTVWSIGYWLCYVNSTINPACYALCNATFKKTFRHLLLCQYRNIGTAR
# Experimental: as §1
# [4] = biological target: T4, human muscarinic M3 receptor (Homo sapiens, UniProt P20309); assay: Alphascreen Surefire phospho-ERK1/2 functional assay, M3; settings: for Emax: CHO
# T4 construct: expressed in transfected cells
# Experimental: as §1
# [5] = CHO cells stably expressing human M1, read-out: pEC50 M1 (converted)
# [6] = read-out: % Emax cf. ACh (M1), CHO cells stably expressing human M1, Emax relative to ACh
# [7] = CHO cells stably expressing human M2, agonist 5 min, 37° C., read-out: pEC50 M2 (converted)
# [8] = read-out: % Emax cf. ACh (M2), CHO cells stably expressing human M2, Emax relative to ACh
# [9] = CHO cells stably expressing human M4, read-out: pEC50 M4 (converted)
# [10] = CHO cells stably expressing human M3, agonist 5 min, 37° C., read-out: pEC50 M3 (converted)
# [11] = read-out: % Emax cf. ACh (M3), CHO cells stably expressing human M3, Emax relative to ACh
# [12] = pEC50 M1, CHO cells stably expressing human M1
# [13] = CHO cells stably expressing human M1, Emax relative to ACh
# [14] = CHO cells stably expressing human M4
# [15] = CHO cells stably expressing human M1
# T4 sequence (P20309 whole entry): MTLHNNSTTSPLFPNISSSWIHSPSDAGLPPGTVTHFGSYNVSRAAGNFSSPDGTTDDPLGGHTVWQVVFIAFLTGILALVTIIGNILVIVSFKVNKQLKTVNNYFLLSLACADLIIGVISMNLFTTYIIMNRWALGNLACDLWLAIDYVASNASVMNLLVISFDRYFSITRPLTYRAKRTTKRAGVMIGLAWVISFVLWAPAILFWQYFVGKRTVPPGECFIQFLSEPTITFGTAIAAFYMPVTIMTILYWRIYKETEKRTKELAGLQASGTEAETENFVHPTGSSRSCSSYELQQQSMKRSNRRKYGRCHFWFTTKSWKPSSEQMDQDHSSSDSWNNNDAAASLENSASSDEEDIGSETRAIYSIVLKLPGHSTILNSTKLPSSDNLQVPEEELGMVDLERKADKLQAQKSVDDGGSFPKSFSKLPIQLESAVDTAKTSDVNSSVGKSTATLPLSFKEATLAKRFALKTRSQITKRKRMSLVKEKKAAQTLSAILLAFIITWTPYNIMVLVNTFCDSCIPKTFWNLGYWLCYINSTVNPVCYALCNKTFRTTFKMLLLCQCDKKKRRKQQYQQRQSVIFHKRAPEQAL
Compound,"EC50 [1, 5]","Emax [1, 6]","EC50 [2, 7]","EC50 [3, 9]",Emax [3],"EC50 [4, 10]",Emax ([2]; read-out: % Emax cf. ACh (M2)),Emax ([4]; read-out: % Emax cf. ACh (M3)),further results
"Cc1noc(N2CCC3(CC(N4CCC(n5cccn5)CC4)C3)C2)n1 (single isomer, unassigned) [2-1 Isomer 2]",> 20000 nM,56%,> 20000 nM,302 nM,41%,> 20000 nM,,,"Emax [2, 8]: 2%; Emax [4, 11]: 3%"
"Cc1noc(N2CCC3(CC(N4CCC(C#N)(c5ccccc5)CC4)C3)C2)n1 (single isomer, unassigned) [2-2 Isomer 2]",,,,,51%,,2%,3%,"Emax ([1]; read-out: % Emax cf. ACh (M1)): 40%; EC50 [1, 12]: 741 nM; EC50 [2]: > 20000 nM; EC50 ([3]; pEC50 M4, CHO cells stably expressing human M4): 117 nM; EC50 [4]: > 20000 nM"
"Cc1noc(N2C3CCC2CC(N2CCC(n4cccn4)CC2)C3)n1 (single isomer, unassigned) [6-1 Isomer 1]",> 20000 nM,23%,> 20000 nM,295 nM,51%,> 20000 nM,2%,2%,
"CCc1noc(N2C3CCC2CC(N2CCC4(CC2)CNC(=O)C4)C3)n1 (single isomer, unassigned) [6-3 Isomer 2]",,33%,,> 20000 nM,7%,,3%,1%,"EC50 [1, 12]: 32.4 nM; EC50 [2]: > 20000 nM; EC50 [4]: > 20000 nM"
"Cc1noc(N2C3CCC2CC(N2CCC4(CC2)CNC(=O)O4)C3)n1 (single isomer, unassigned) [6-4 Isomer 2]",257 nM,,> 20000 nM,525 nM,,> 20000 nM,5%,32%,"% Emax cf. ACh (M1) [1, 13]: (87) %; % Emax cf. ACh (M4) [3, 14]: (39) %"
"Cc1noc(N2C3CCC2CC(N2CCC(C(=O)NC4(C)CCC4)CC2)C3)n1 (single isomer, unassigned) [6-5 Isomer 2]",148 nM,100%,> 20000 nM,195 nM,79%,> 20000 nM,31%,11%,
"Cc1noc(N2CC3CCC2CC3N2CCC(n3cccn3)CC2)n1 (single isomer, unassigned) [7-1 Isomer 1]",> 20000 nM,18%,> 20000 nM,151 nM,85%,> 20000 nM,,,"Emax [2, 8]: 11%; Emax [4, 11]: 7%"
"Cc1noc(N2CC3CCC2CC3N2CCC(n3cccn3)CC2)n1 (single isomer, unassigned) [7-1 Isomer 2]",2290 nM,,,85.1 nM,,,,,"% Emax cf. ACh (M1) [1, 13]: (33) %; % Emax cf. ACh (M2) ([2]; CHO cells stably expressing human M2, Emax relative to ACh): (15) %; pEC50 M2 ([2]; CHO cells stably expressing human M2, agonist 5 min, 37° C.): <4.70; % Emax cf. ACh (M4) [3, 14]: (99) %; % Emax cf. ACh (M3) ([4]; CHO cells stably expressing human M3, Emax relative to ACh): (6) %; pEC50 M3 ([4]; CHO cells stably expressing human M3, agonist 5 min, 37° C.): <4.70"
"Cc1noc(N2C3CCCC2CC(N2CCC4(CC2)CNC(=O)O4)C3)n1 (single isomer, unassigned) [8-3 Isomer 1]",295 nM,39%,> 20000 nM,> 20000 nM,67%,> 20000 nM,4%,1%,
"Cc1noc(N2C3COCC2CC(N2CCC(n4cccn4)CC2)C3)n1 (single isomer, unassigned) [9-1 Isomer 1]",> 20000 nM,15%,> 20000 nM,105 nM,77%,> 20000 nM,21%,1%,
"CCN(CC)C(=O)[C@H]1[C@@H]2CN(C3CC4COCC(C3)N4c3nc(C)no3)C[C@@H]21 (single isomer, unassigned) [9-2 Isomer 2]",219 nM,109%,> 20000 nM,741 nM,74%,6310 nM,27%,42%,
"Cc1noc(N2CCCC(N3CCC4(CC3)CNC(=O)C4)CC2)n1 (single isomer, unassigned) [10-2 Isomer 1]",93.3 nM,66%,> 20000 nM,> 20000 nM,10%,> 20000 nM,,,"Emax [2, 8]: 3%; Emax [4, 11]: 5%"
"Cc1noc(N2C3CCC2CC(N2CCC(C(=O)NC4(C)CCCC4)CC2)C3)n1 (single isomer, unassigned) [12-11 Isomer 2]",661 nM,103%,,2690 nM,83%,,,,
"Cc1noc(N2C3CCC2CC(N2CCC(C(=O)NCC4(C)CCC4)CC2)C3)n1 (single isomer, unassigned) [12-12 Isomer 2]",,80%,,209 nM,107%,,,,"EC50 [1, 12]: 3.72 nM"
"CC1(NC(=O)C2CCN(C3CC4CCC(C3)N4c3nc(C(F)(F)F)no3)CC2)CCC1 (single isomer, unassigned) [12-14 Isomer 1]",,,,> 20000 nM,,,,,"% Emax cf. ACh (M1) [1, 13]: (47) %; EC50 [1, 12]: 912 nM; % Emax cf. ACh (M4) [3, 14]: (6) %"
"CCN(C)C(=O)[C@H]1[C@@H]2CN(C3CC4CCC(C3)N4c3nc(C)no3)C[C@@H]21 (single isomer, unassigned; isomer 1) [12-24 Isomer 1]",,,,,,,,,"% Emax cf. ACh (M1) [1, 13]: (74) %; pEC50 M1 [1, 15]: 6.08; % Emax cf. ACh (M4) [3, 14]: (16) %; pEC50 M4 [3, 14]: <4.70"
"Cc1noc(N2C3CCC2CC(N2C[C@@H]4[C@H](C2)[C@H]4C(=O)NC2(C)CCC2)C3)n1 (single isomer, unassigned; isomer 2) [12-13 Isomer 2]",,,,,,,,,"% Emax cf. ACh (M1) [1, 13]: (102) %; pEC50 M1 [1, 15]: 6.48; % Emax cf. ACh (M4) [3, 14]: (69) %; pEC50 M4 [3, 14]: 6.09"
"Cc1noc(N2CC3(CC(N4CCC(n5cccn5)CC4)C3)C2)n1 [Example 1-1, 2-(3-Methyl-1,2,4-oxadiazol-5-yl)-6-[4-(1H-pyrazol-1-yl)piperidin-1-yl]-2-azaspiro[3.3]heptane]",10200 nM,48%,,513 nM,77%,,,,
"Cc1noc(N2CCC(N3CCC(n4cccn4)CC3)CC2)n1 [Example 4-1, 1′-(3-Methyl-1,2,4-oxadiazol-5-yl)-4-(1H-pyrazol-1-yl)-1,4′-bipiperidine]",≥ 20000 nM,50%,,1000 nM,85%,,,,
